Key:
Type in all cases: biochemical
ST6GalNAc2 = target: T1, ST6GalNAc2 (Homo sapiens, UniProt Q9UJ37); assay: DFGL with fluorophore-conjugated sialic acid by ST6GalNAc2; parameters: key: +++: indicated by + and − signs only; ++: indicated by + and − signs only; indicated by + and − signs only; indicated by + and − signs only; details: fluorophore-conjugated sialic acid donor; acceptor O-GalNAc, sialylation on terminal Gal is flexible; FIG. 2
T1 sequence (Q9UJ37 1-374): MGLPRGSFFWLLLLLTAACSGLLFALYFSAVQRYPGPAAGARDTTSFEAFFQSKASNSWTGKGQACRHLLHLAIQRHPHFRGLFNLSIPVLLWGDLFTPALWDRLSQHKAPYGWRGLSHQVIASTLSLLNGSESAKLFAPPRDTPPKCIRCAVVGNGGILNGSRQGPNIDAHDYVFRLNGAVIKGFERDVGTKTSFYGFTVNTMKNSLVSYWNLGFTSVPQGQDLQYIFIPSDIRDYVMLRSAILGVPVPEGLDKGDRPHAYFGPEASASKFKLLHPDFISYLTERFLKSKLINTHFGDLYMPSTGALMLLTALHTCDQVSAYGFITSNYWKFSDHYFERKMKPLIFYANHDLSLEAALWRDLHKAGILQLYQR

ST6GalNAc4 = target: T2, ST6GalNAc4 (Homo sapiens, UniProt Q9H4F1); assay: DFGL with fluorophore-conjugated sialic acid by ST6GalNAc4; parameters: key to Relative tolerance of the fluorophore by ST6GalNAc4: +++: indicated by + and − signs only; ++: indicated by + and − signs only; indicated by + and − signs only; indicated by + and − signs only; details: fluorophore-conjugated sialic acid donor; acceptor O-GalNAc, with sialylated terminal Gal; FIG. 2
T2 construct: purchased R&D Systems (Bio-Techne, Minneapolis, MN)
T2 sequence (Q9H4F1 1-302): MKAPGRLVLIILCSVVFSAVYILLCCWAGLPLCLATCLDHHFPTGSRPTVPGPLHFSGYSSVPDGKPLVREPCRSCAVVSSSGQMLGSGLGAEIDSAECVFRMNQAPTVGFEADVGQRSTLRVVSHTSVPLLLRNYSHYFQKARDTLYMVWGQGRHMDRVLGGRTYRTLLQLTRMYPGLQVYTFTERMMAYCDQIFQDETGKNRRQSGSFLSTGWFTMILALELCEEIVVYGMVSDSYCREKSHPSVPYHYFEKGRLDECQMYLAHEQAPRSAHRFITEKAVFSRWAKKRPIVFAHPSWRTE

ST3Gal1 = target: T3, ST3Gal1 (Homo sapiens, UniProt Q11201); assay: Direct fluorescent glycan labeling (DFGL) with fluorophore-conjugated sialic acid by ST3Gal1; parameters: key to Relative tolerance of the fluorophore by ST3Gal1: +++: indicated by + and − signs only; ++: indicated by + and − signs only; indicated by + and − signs only; indicated by + and − signs only; details: fluorophore-conjugated sialic acid donor; acceptor Gal of Core-1 O-glycan; fluorescence intensity of labeled fetuin or asialofetuin in FIG. 2
T3 construct: purchased R&D Systems (Bio-Techne, Minneapolis, MN)
T3 sequence (Q11201 1-340): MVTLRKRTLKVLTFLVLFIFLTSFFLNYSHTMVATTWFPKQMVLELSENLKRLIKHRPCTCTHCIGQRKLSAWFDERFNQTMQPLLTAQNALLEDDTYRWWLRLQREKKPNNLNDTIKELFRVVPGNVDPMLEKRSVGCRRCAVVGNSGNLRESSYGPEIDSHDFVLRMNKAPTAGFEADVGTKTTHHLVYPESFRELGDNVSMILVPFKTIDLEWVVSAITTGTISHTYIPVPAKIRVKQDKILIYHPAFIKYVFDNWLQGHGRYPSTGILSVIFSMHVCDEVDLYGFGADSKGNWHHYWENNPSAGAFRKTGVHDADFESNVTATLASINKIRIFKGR

ST3Gal4 = target: T4, ST3Gal4 (Homo sapiens, UniProt Q11206); assay: DFGL with fluorophore-conjugated sialic acid by ST3Gal4; parameters: key: +++: indicated by + and − signs only; ++: indicated by + and − signs only; indicated by + and − signs only; indicated by + and − signs only; details: fluorophore-conjugated sialic acid donor; acceptor Gal of N-glycan; fluorescence intensity of labeled fetuin or asialofetuin in FIG. 2
T4 construct: purchased R&D Systems (Bio-Techne, Minneapolis, MN)
T4 sequence (Q11206 1-333): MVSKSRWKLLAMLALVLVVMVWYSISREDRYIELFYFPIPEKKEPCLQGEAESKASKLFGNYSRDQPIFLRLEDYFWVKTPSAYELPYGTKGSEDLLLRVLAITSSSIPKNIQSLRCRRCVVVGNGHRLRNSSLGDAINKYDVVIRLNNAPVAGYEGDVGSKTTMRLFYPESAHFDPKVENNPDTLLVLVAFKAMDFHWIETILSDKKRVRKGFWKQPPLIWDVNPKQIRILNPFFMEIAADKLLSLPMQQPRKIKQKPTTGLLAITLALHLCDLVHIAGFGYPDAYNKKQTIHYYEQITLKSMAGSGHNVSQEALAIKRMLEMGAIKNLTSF

ST3Gal2 = target: T5, ST3Gal2 (Homo sapiens, UniProt Q16842); assay: DFGL with fluorophore-conjugated sialic acid by ST3Gal2; parameters: key: +++: indicated by + and − signs only; ++: indicated by + and − signs only; indicated by + and − signs only; indicated by + and − signs only; details: fluorophore-conjugated sialic acid donor; acceptor Gal of Core-1 O-glycan; fluorescence intensity of labeled fetuin or asialofetuin in FIG. 2
T5 construct: purchased R&D Systems (Bio-Techne, Minneapolis, MN)
T5 sequence (Q16842 1-350): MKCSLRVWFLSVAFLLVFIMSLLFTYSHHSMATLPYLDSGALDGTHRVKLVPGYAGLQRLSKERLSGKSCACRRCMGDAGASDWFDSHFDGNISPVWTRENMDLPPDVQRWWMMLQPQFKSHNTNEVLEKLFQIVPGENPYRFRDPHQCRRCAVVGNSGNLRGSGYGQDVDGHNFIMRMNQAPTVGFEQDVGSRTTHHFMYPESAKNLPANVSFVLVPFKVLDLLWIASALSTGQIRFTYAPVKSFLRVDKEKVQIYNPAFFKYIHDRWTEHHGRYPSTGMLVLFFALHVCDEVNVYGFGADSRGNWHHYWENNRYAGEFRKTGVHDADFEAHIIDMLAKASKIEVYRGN

ST6Gal1 = target: T6, ST6Gal1 (Homo sapiens, UniProt P15907); assay: DFGL with fluorophore-conjugated sialic acid by ST6Gal1; parameters: key to Relative tolerance of the fluorophore by ST6Gal1: +++: indicated by + and − signs only; ++: indicated by + and − signs only; indicated by + and − signs only; indicated by + and − signs only; details: fluorophore-conjugated sialic acid donor; acceptor Gal of N-glycan; fluorescence intensity of labeled fetuin or asialofetuin in FIG. 2
T6 construct: purchased R&D Systems (Bio-Techne, Minneapolis, MN)
T6 sequence (P15907 1-406): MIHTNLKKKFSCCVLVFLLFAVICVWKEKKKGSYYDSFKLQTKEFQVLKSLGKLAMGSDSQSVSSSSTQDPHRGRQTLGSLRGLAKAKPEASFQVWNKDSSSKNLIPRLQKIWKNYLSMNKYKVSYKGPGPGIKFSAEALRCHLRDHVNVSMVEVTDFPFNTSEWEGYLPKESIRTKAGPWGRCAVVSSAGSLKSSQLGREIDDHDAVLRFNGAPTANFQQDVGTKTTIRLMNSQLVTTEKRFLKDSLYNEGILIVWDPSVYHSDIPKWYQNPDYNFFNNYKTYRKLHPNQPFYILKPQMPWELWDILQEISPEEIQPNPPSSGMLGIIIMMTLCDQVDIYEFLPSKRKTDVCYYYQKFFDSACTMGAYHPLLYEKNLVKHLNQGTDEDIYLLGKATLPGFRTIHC

ST6GalNAc1 = target: T7, ST6GalNAc1 (Homo sapiens, UniProt Q9NSC7); assay: DFGL with fluorophore-conjugated sialic acid by ST6GalNAc1; parameters: key: +++: indicated by + and − signs only; ++: indicated by + and − signs only; indicated by + and − signs only; indicated by + and − signs only; details: fluorophore-conjugated sialic acid donor; acceptor O-GalNAc, sialylation on terminal Gal is flexible; FIG. 2
T7 construct: purchased R&D Systems (Bio-Techne, Minneapolis, MN)
T7 sequence (Q9NSC7 1-600): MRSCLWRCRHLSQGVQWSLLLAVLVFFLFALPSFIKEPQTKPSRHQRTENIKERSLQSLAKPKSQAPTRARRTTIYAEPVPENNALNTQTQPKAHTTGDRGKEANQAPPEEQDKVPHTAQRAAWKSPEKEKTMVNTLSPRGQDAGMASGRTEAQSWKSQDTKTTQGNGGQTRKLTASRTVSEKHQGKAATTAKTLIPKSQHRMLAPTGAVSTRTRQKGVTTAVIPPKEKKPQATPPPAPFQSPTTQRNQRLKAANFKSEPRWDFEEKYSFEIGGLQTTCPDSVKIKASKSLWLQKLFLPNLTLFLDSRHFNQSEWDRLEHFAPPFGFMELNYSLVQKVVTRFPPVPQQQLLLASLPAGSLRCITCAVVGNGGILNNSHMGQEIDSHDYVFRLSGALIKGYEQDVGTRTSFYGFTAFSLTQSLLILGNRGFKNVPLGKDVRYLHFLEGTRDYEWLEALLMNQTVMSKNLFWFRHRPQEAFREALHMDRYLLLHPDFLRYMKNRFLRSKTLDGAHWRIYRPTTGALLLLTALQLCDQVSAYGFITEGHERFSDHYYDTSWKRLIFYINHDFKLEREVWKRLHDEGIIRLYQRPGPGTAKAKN

cytidine monophosphate activated Alexa-Fluor®488-conjugated sialic acid [CMP-AF488-SA]
Relative tolerance of the fluorophore by ST6GalNAc2 (ST6GalNAc2): − | Relative tolerance of the fluorophore by ST6GalNAc4 (ST6GalNAc4): + | Relative tolerance of the fluorophore by ST3Gal1 (ST3Gal1): + | Relative tolerance of the fluorophore by ST3Gal4 (ST3Gal4): + | Relative tolerance of the fluorophore by ST3Gal2 (ST3Gal2): +++ | Relative tolerance of the fluorophore by ST6Gal1 (ST6Gal1): +++ | Relative tolerance of the fluorophore by ST6GalNAc1 (ST6GalNAc1): ++
